Consider four molecules from patent publication US20260184663A1, “INDENE COMPOUNDS, PHARMACEUTICAL COMPOSITIONS THEREOF, AND THEIR THERAPEUTIC APPLICATIONS” (NucMito Pharmaceuticals co. Ltd., priority 2022, published 2026).

As usually defined, the inhibition is the change of the read-out against control, counted positive when it falls.

Type in all cases: cell-based
Test [1] has as its system alpha-smooth muscle actin (α-SMA). As to the kind of experiment: Inhibition of TGF-β induced expression of alpha-smooth muscle actin (α-SMA) in CFSC cells (western blot). Particulars: compound at 10 μM, TGF-β (10 ng/mL), 24 hours, band intensity vs TGF-β only. Summed up: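 CFSC hepatic stellate cells in serum-free DMEM treated 24 h at 37 °C with compound at 10 μM plus TGF-β (10 ng/mL). α-SMA measured by Western blot with β-actin, ECL detection, densitometry. Percent inhibition is decrease in band intensity versus TGF-β-only cells.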
(In general: Immunoblotting shows a protein as a band on a membrane.)

Test [2] has as its system A549 (lung adenocarcinoma). As to the kind of experiment: Antiproliferative activity (CCK-8 cell viability), A549. The note with it: Homo sapiens, 72 h, read-out: Antiproliferative activity in cancerous cells, A549 (inhibition of cell growth); for inhibition at 3.3 µM: Compound concentration: 3.3 μM; for inhibition at 10 µM: Compound concentration: 10 μM; for inhibition at 30 µM: Compound concentration: 30 μM. Summed up: (§1)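 Growth inhibition graded in bands from percent viability against DMSO vehicle, read as CCK-8 absorbance at 450 nm. Compound tested at 3.3, 10 or 30 μM for 72 h, 37 °C; media contained 10% FBS: DMEM for HepG2/SW480, MEM for HeLa, F-12K for A549.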

The test system of test [3] is MDA-MB-231 (breast cancer). Nature of the test: Antiproliferative activity (CCK-8 cell viability), MDA-MB-231. Particulars: Homo sapiens, 72 h, read-out: Antiproliferative activity in cancerous cells, MDA-MB-231 (inhibition of cell growth); for inhibition at 3.3 µM: Compound concentration: 3.3 μM; for inhibition at 10 µM: Compound concentration: 10 μM; for inhibition at 30 µM: Compound concentration: 30 μM. In outline:
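Growth inhibition of human MDA-MB-231 breast cancer cells was assessed with a Cell Counting Kit-8. Cells cultured in DMEM plus 10% FBS were seeded at 2,000-5,000 cells/well, treated after attachment, and kept 72 h at 37° C. CCK-8 solution (10 μL) was added for 4 h, and absorbance at 450 nm was compared with DMSO-treated controls.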

Test [4] concerns A431 (epidermoid carcinoma). Nature of the test: Antiproliferative activity (CCK-8 cell viability), A431. The note with it: Homo sapiens, 72 h, read-out: Antiproliferative activity in cancerous cells, A431 (inhibition of cell growth); for inhibition at 3.3 µM: A-431, Compound concentration: 3.3 μM; for inhibition at 10 µM: A-431, Compound concentration: 10 μM; for inhibition at 30 µM: A-431, Compound concentration: 30 μM. In outline:
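This growth inhibition assay used A431 cells maintained in Dulbecco's modified Eagle's medium plus 10% fetal bovine serum. Cells were seeded in 96-well plates, treated with compound for 72 h at 37° C., and then given 10 μL CCK-8 solution. After a further 4 h, absorbance was read at 450 nm.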

The next test has as its system HepG2 (liver cancer). Nature of the test: Antiproliferative activity (CCK-8 cell viability), HepG2. Particulars: Homo sapiens, 72 h, read-out: Antiproliferative activity in cancerous cells, HepG2 (inhibition of cell growth); for inhibition at 3.3 µM: Compound concentration: 3.3 μM; for inhibition at 10 µM: Compound concentration: 10 μM; for inhibition at 30 µM: Compound concentration: 30 μM. In outline:
as §1

Test [5] deals with B16F10 (malignant melanoma). As to the kind of experiment: Antiproliferative activity (CCK-8 cell viability), B16F10. The note with it: Mus musculus, 72 h, read-out: Antiproliferative activity in cancerous cells, B16F10 (inhibition of cell growth); for inhibition at 3.3 µM: B16-F10, Compound concentration: 3.3 μM; for inhibition at 10 µM: B16-F10, Compound concentration: 10 μM; for inhibition at 30 µM: B16-F10, Compound concentration: 30 μM. In outline: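 Cell growth inhibition was measured in B16F10 malignant melanoma cells with a Cell Counting Kit-8 viability assay. Cells were maintained in DMEM plus 10% fetal bovine serum, seeded at 2,000-5,000 cells/well in 96-well plates, and treated for 72 h at 37° C. Viability was expressed relative to DMSO-treated vehicle control wells.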

For a further test, the system named is SW480 (colon cancer). As to the kind of experiment: Antiproliferative activity (CCK-8 cell viability), SW480. The note with it: Homo sapiens, 72 h, read-out: Antiproliferative activity in cancerous cells, SW480 (inhibition of cell growth); for inhibition at 3.3 µM: Compound concentration: 3.3 μM; for inhibition at 10 µM: Compound concentration: 10 μM; for inhibition at 30 µM: Compound concentration: 30 μM. In outline: as §1

The subject of a further test is HeLa (cervical cancer). Nature of the test: Antiproliferative activity (CCK-8 cell viability), HeLa. The note with it: Homo sapiens, 72 h, read-out: Antiproliferative activity in cancerous cells, HELA (inhibition of cell growth); for inhibition at 3.3 µM: Compound concentration: 3.3 μM; for inhibition at 10 µM: Compound concentration: 10 μM; for inhibition at 30 µM: Compound concentration: 30 μM. Summed up: as §1

In the case of `CC1=C(CC(=O)O)c2c(F)ccc(F)c2/C1=C/c1cccc(C(F)(F)F)c1` [E13, (E)-2-(4,7-Difluoro-2-methyl-1-(3-(trifluoromethyl)benzylidene)-1H-inden-3-yl)-acetic acid], the inhibition at 10 µM was less than 30% in test [1]; no less than 50% in test [2]; less than 30% in test [3]; 30 to 50% in test [4]; less than 30% with HepG2 (liver cancer); no less than 50% in test [5]. Besides, the inhibition at 10 µM is less than 30% in the test on SW480 (colon cancer) and 30 to 50% in the test on HeLa (cervical cancer). Further, the inhibition at 3.3 µM (in test [2]; in test [3]; in test [4]; with HepG2 (liver cancer); in test [5]; in the test with SW480 (colon cancer)) was less than 30% in each case. The inhibition at 3.3 µM in the test on HeLa (cervical cancer) was in the range of 30 to 50%. In addition, the inhibition at 30 µM was no less than 50% in test [2]; less than 30% in test [3]; no less than 50% in test [4]; less than 30% with HepG2 (liver cancer); no less than 50% in test [5]; less than 30% in the test with SW480 (colon cancer). Moreover, the inhibition at 30 µM with HeLa (cervical cancer) is no less than 50%.
Consider `C/C(=C1/C=C(CC(=O)O)c2ccccc21)c1ccc(F)cc1` [E14, (E)-2-(1-(1-(4-Fluorophenyl)ethylidene)-1H-inden-3-yl)acetic acid], for which the inhibition at 10 µM was less than 30% in test [1]; less than 30% in test [2]; 30 to 50% in test [3]; less than 30% in test [4]; less than 30% in the test with HepG2 (liver cancer); less than 30% in test [5]. Also, the inhibition at 10 µM with SW480 (colon cancer) was less than 30%; in the test on HeLa (cervical cancer), 30 to 50%. Also, the inhibition at 3.3 µM in test [2] was less than 30%; in test [3] it was 30 to 50%; in test [4], less than 30%; in the test on HepG2 (liver cancer), less than 30%; in test [5], less than 30%; in the test on SW480 (colon cancer), less than 30%. Further, the inhibition at 3.3 µM in the test on HeLa (cervical cancer) is 30 to 50%. Moreover, the inhibition at 30 µM is 30 to 50% in test [2]; 30 to 50% in test [3]; less than 30% in test [4]; less than 30% in the test on HepG2 (liver cancer); 30 to 50% in test [5]; 30 to 50% in the test on SW480 (colon cancer). The inhibition at 30 µM with HeLa (cervical cancer) is no less than 50%.
Consider `CC1=C(CC(=O)O)c2c(F)ccc(F)c2/C1=C/c1ccc(C(F)(F)F)cc1` [E15, (E)-2-(4,7-Difluoro-2-methyl-1-(4-(trifluoromethyl)benzylidene)-1H-inden-3-yl)-acetic acid], for which the inhibition at 10 µM was less than 30% in test [1]; less than 30% in test [2]; no less than 50% in test [3]; less than 30% in test [4]; less than 30% in the test with HepG2 (liver cancer); less than 30% in test [5]. For the same molecule, the inhibition at 10 µM in the test with SW480 (colon cancer) is less than 30%; with HeLa (cervical cancer), 30 to 50%. Moreover, the inhibition at 3.3 µM in test [2] is less than 30%; in test [3], no less than 50%; in test [4], less than 30%; in the test with HepG2 (liver cancer) it was less than 30%; in test [5] it was less than 30%; with SW480 (colon cancer), less than 30%. The inhibition at 3.3 µM with HeLa (cervical cancer) was less than 30%. Further, the inhibition at 30 µM in test [2] is no less than 50%; in test [3], no less than 50%; in test [4] it was no less than 50%; in the test on HepG2 (liver cancer), less than 30%; in test [5], no less than 50%; in the test with SW480 (colon cancer) it was less than 30%. In addition, the inhibition at 30 µM with HeLa (cervical cancer) was no less than 50%.
`CC1=C(CC(=O)O)c2cc(F)ccc2/C1=C/c1cccc(Oc2cccc(C(F)(F)F)c2)c1` [E16, (E)-2-(5-Fluoro-2-methyl-1-(3-(3-(trifluoromethyl)phenoxy)benzylidene)-1H-inden-3-yl)acetic acid]: the inhibition at 10 µM in test [1] is greater than 80%; in test [2] it was 30 to 50%; in test [3], 30 to 50%; in test [4], less than 30%; with HepG2 (liver cancer), 30 to 50%; in test [5] it was less than 30%. For the same molecule, the inhibition at 10 µM with SW480 (colon cancer) was less than 30%; in the test on HeLa (cervical cancer), no less than 50%. Moreover, the inhibition at 3.3 µM in test [2] was 30 to 50%; in test [3], 30 to 50%; in test [4], less than 30%; in the test on HepG2 (liver cancer), less than 30%; in test [5] it was less than 30%; in the test with SW480 (colon cancer), less than 30%. In the test with HeLa (cervical cancer), the inhibition at 3.3 µM was no less than 50%. The inhibition at 30 µM (in test [2]; in test [3]; in test [4]; in the test with HepG2 (liver cancer); in test [5]; in the test with SW480 (colon cancer)) was no less than 50% in each case. The inhibition at 30 µM in the test on HeLa (cervical cancer) was no less than 50%.
